Values of other authors as cited in patent US7098376B2, “Transgenic mouse expressing constitutively active hydrocarbon receptor” (InDex Pharmaceuticals AB, priority 2000, dated 2006).

Tested on: mouse models

Clc1cc2c(cc1Cl)Oc1cc(Cl)c(Cl)cc1O2 [TCDD, 2,3,7,8-tetrachlorodibenzo-p-dioxin]
dose at which weight loss or impaired weight gain are detected (mice exposed to TCDD): higher than 3 μg/kg body weight | acute toxic effects (e.g. lethality or the wasting syndrome) (single dose of 3 μg TCDD/kg body weight, mouse models): no acute toxic effects
